From patent US4895846A, “Pharmaceutically useful dihydropyridinyldicarboxylate amides and esters incorporating arylpiperazinylalkyl moieties” (Bristol-Myers Company, priority 1987, dated 1990)
≈ marks a conversion by molar mass, not a printed value.

Tests used:
[1] = test system: blood platelets in platelet rich plasma; experiment: Collagen aggregation of blood platelets in platelet rich plasma; type: cell-based; conditions: Oryctolagus cuniculus; platelet rich plasma (rabbit)
[2] = test system: normotensive and spontaneously hypertensive conscious rats; experiment: Oral administration to normotensive and spontaneously hypertensive conscious rats, mean arterial blood pressure; type: in vivo, rat; conditions: for maximal mean arterial blood pressure reduction: oral
Method: In vivo testing included vasodilating results in the ganglion-blocked, angiotensin-II supported rat and antihypertensive screening in either the spontaneous hypertensive rat (SHR) or DOCA salt rats. In general, vasodilating activity paralleled calcium blocking activity for members of the instant series. […] A most preferred compound, BMY 20064 [drawing 21] was administered orally to both normotensive and spontaneously hypertensive conscious rats. Doses of 1 and 10 mg/kg elicited maximal mean arterial blood pressure reductions of 25 and 53 mmHg, respectively, in the normotensive rat group and 34 and 100 mmHg, respectively, in the spontaneously hypertensive rat group.

Compound | EC50 [1] [µg/mL] | onset of mean arterial blood pressure response ([2]; both groups (normotensive and SHR), oral 1 and 10 mg/kg) [min] | persistence of mean arterial blood pressure response ([2]; both groups, after the higher dose (10 mg/kg oral)) [h] | maximal mean arterial blood pressure reduction ([2]; normotensive conscious rats, 1 mg/kg) [mmHg] | maximal mean arterial blood pressure reduction ([2]; normotensive conscious rats, 10 mg/kg) [mmHg] | maximal mean arterial blood pressure reduction ([2]; spontaneously hypertensive conscious rats, 1 mg/kg) [mmHg] | maximal mean arterial blood pressure reduction ([2]; spontaneously hypertensive conscious rats, 10 mg/kg) [mmHg]
COC(=O)C1=C(C)NC(C)=C(C(=O)OCCCN2CCN(c3ccccc3OC)CC2)C1c1cccc([N+](=O)[O-])c1 (stereo not drawn) [BMY 20064] | 11 (≈ 19.5 µM) | < 10 | > 4 | 25 | 53 | 34 | 100
COc1ccc(CCN(C)CCCC(C#N)(c2ccc(OC)c(OC)c2)C(C)C)cc1OC (stereo not drawn) [Verapamil] | 151 (≈ 332 µM) |  |  |  |  |  | 
COC(=O)C1=C(C)NC(C)=C(C(=O)OC)C1c1ccccc1[N+](=O)[O-] [Nifedipine, 4-(2'-nitrophenyl)-2,6-dimethyl-3,5-dicarbomethoxy-1,4-dihydropyridine] | 176 (≈ 508 µM) |  |  |  |  |  | 
